The text below walks through data of publication PMC8878047 (Pharmaceutics, 2022).

The data set relates to KM mice. Format: in vivo. The note with it: high-dose group, dead mice, HE staining. As to the method:
After the acute toxicity test, the dead mice after oral administration and the surviving mice at the end of the observation period were promptly dissected and pathologically examined. […] We dissected the important organs (heart, liver, spleen, lung, kidney, large intestine, and small intestine) of dead mice and normal mice in the high-dose group of each drug solution. Then, the main organs were fixed in 10% buffered formalin and embedded in paraffin for 1–4 h. They were histopathologically examined under the optical microscope after slicing and staining with hematoxylin-eosin (HE) staining. No fixed parameters were compared between the treatment and control groups.

Take `CCN1CCN(c2cc3c(cc2F)c(=O)c(C(=O)[O-])cn3C2CC2)CC1.[Na+]` [EFX-Na, reference compound]: the “histopathological finding in kidney tissue” value is “more and larger glomeruli in kidney tissue”.
